Results as given in US7407948B2, “Photosensitisers and their uses” (priority 2007, dated 2008).
Like-named read-outs stand apart in the source and are kept apart here.

Assays:
[1] = system: S. aureus; assay: Photoinactivation of bacteria by phenoselenazinium derivatives (S. aureus); format: cell-based; details: 10 μM photosensitiser, 30 min 37° C., 665 nm laser, 3 J/cm^2 (10 mW/cm^2)
Protocol: (§1) 1 mM stock solutions of the photosensitisers were made up by solubilising the photosensitiser in dimethyl sulfoxide.
(§2) Bacteria (E. coli, S. aureus) and yeast (C. albicans) cells were grown at 37° C. until the cells reached the logarithmic growth phase. Bacterial cells were grown in nutrient media, yeast cells were grown in Sabouraud media (obtainable via Millipore Limited, Watford, England).
(§3) Following the incubation, the log phase cells were washed twice in 0.1 M pH7.0 potassium phosphate buffer. The cells were then resuspended in buffer to give 3.5×10^8 CFU/ml for E. coli and S. aureus, or 1.0×10^7 CFU/ml for C. albicans.
(§4) The cells were incubated for 30 min at 37° C. with 10 μM photosensitiser. Following the incubation 2 mL of the cell suspension was removed into a 30 mm sterile Petri dish. The cell containing dish was then illuminated with a 665 nm Ceramoptec diode laser (trade mark of Ceramoptec GmBH, Germany and obtainable from Biolitec, Germany), at a light dose of 3 J/cm^2 (10 mW/cm^2).
(§5) Cells of the illuminated and non illuminated cultures were serially diluted and plated on either: nutrient agar (E. coli and S. aureus) or sabouraud agar (C. albicans). The plates were incubated for 24 h (E. coli and C. albicans) or 48 h (S. aureus). The colonies on the plates were counted as a measure of cell survival.

[2] = system: C. albicans; assay: Photoinactivation of yeast by phenoselenazinium derivatives (C. albicans); format: cell-based; details: 10 μM photosensitiser, 30 min 37° C., 665 nm laser, 3 J/cm^2 (10 mW/cm^2)
Protocol: as §1, §2, §3, §4, §5

[3] = system: subcutaneous CaNT tumours; assay: Anti-tumour efficacy in vivo (PDT, tumour necrosis); set-up: species or system CBA/gy mice; details: 60 J/cm^2 660±15 nm, 72 h after illumination
Protocol: (§6) Tumour destruction was assessed in CBA/gy mice bearing subcutaneous CaNT tumours. The photosensitiser was administered intravenously at doses up to 16.7 μmol/kg. At various times after photosensitiser administration, the tumour was illuminated superficially with 60 J/cm^2, 50 mW/cm^2 light from a Paterson lamp using a 660±15 nm filter. Drug-light intervals ranged from 0 h (in practice, 1-2 minutes) up to 96 h. 72 h after illumination a cross sectional slice was removed from the centre of the tumour parallel to the incident light, an image of this was captured and the macroscopic necrotic area quantified using image analysis software. Necrosis was expressed as % area of the total tumour slice. % tumour necrosis in control tumours was generally <10%.
(§7) The phenoselenazinium compounds were dissolved and administered in a composition comprising 25% Solutol, 10% ethanol, 65% saline vehicle.

[4] = system: E. coli; assay: Photoinactivation of bacteria by phenoselenazinium derivatives (E. coli); format: cell-based; details: 10 μM photosensitiser, 30 min 37° C., 665 nm laser, 3 J/cm^2 (10 mW/cm^2)
Protocol: as §1, §2, §3, §4, §5

[5] = Singlet oxygen yield relative to Methylene Blue; format: physicochemical; details: in methanol, relative to MB
[6] = Partition coefficient log P; format: physicochemical; details: 2-octanol/0.1 M aqueous potassium phosphate at pH 7
Source text: Partition coefficient (2-octanol/0.1 M aqueous potassium phosphate at pH 7): log P=>2.

[7] = system: normal tissues surrounding the tumour (usually kidney); format: in vivo; details: arbitrary score 0-3, i.v. dose 1.67 μmol/Kg
Protocol: as §6
An arbitrary score 0-3 of the severity of damage to normal tissues surrounding the tumour (usually kidney) was also recorded. 0=no detectable damage; 1=minimal damage to one organ; 2=damage to more than one organ; 3=death
as §7

[8] = i.v. dose 1.67 μmol/Kg, drug to light interval 0 h
[9] = i.v. dose 1.67 μmol/Kg, drug to light interval 1 h
[10] = i.v. dose 8.4 μmol/Kg, drug to light interval 1 h

Row | SMILES | Log change in CFU/mL [1] | Log change in CFU/mL [2] | % tumour necrosis ([3]; i.v. dose 0.84 μmol/Kg, drug to light interval 0 h) | % tumour necrosis ([3]; i.v. dose 0.84 μmol/Kg, drug to light interval 1 h) | % tumour necrosis [3, 8] | % tumour necrosis [3, 9] | Log change in CFU/mL [4] | Singlet oxygen yield (relative to Methylene Blue) [5] | logP [6] | % tumour necrosis ([3]; i.v. dose 8.4 μmol/Kg, drug to light interval 0 h) | % tumour necrosis [3, 10] | % tumour necrosis ([3]; i.v. dose 16.7 μmol/Kg, drug to light interval 0 h) | % tumour necrosis ([3]; i.v. dose 4.18 μmol/Kg, drug to light interval 0 h) | % tumour necrosis ([3]; i.v. dose 6.26 μmol/Kg, drug to light interval 0 h) | % tumour necrosis ([3]; i.v. dose 8.34 μmol/Kg, drug to light interval 0 h) | Normal tissue damage ([7]; drug to light interval 0 h) | Normal tissue damage ([7]; drug to light interval 1 h)
1 | CCCCN(CCCC)c1ccc2nc3ccc(N(CCCC)CCCC)cc3[se+]c2c1 [Compound 1, 3,7-Bis-(N,N-dibutylamino)phenoselenazin-5-ylium bromide] | 0.21 (0.01) log CFU/mL | 0.00 (0.05) log CFU/mL | 93% | 40% | 88% | 88% | 5.48 (0.34) log CFU/mL | 0.9 | > 2 | – | – | – | – | – | – | – | –
2 | CCCN(CCC)c1ccc2nc3ccc(N(CCC)CCC)cc3[se+]c2c1 [Compound 2, 3,7-Bis-(N,N-dipropylamino)phenoselenazin-5-ylium iodide] | 1.70 (0.48) log CFU/mL | 0.35 (0.42) log CFU/mL | – | – | 55% | – | 3.16 (0.03) log CFU/mL | 1.1 | > 2 | 87% | 17% | 100% | – | – | – | – | –
3 | CCN(CC)c1ccc2nc3ccc(N(CC)CC)cc3[se+]c2c1 [Compound 3, 3,7-Bis-(N,N-diethylamino)phenoselenazin-5-ylium iodide] | 2.72 (0.87) log CFU/mL | 0.16 (0.22) log CFU/mL | – | – | 0% | 0% | 3.78 (0.28) log CFU/mL | 1.5 | 1.5 | – | – | – | – | – | – | – | –
4 | CCCCCN(CCCCC)c1ccc2nc3ccc(N(CCCCC)CCCCC)cc3[se+]c2c1 [Compound 4, 3,7-Bis-(N,N-dipentylamino)phenoselenazin-5-ylium iodide] | 0.95 (0.73) log CFU/mL | 0.17 (0.02) log CFU/mL | – | – | 10% | – | 3.66 (2.23) log CFU/mL | 1.4 | > 2 | – | – | – | 45% | 80% | 80% | – | –
5 | CCCCCCN(CCCCCC)c1ccc2nc3ccc(N(CCCCCC)CCCCCC)cc3[se+]c2c1 [Compound 5, 3,7-Bis-(N,N-dihexylamino)phenoselenazin-5-ylium iodide] | 0.18 (0.12) log CFU/mL | −0.03 (0.03) log CFU/mL | – | – | 0% | – | 0.02 (0.13) log CFU/mL | 1.1 | > 2 | – | 30% | – | – | – | – | – | –
6 | CCCCN(CCCC)c1ccc2nc3ccc(N(CCC)CCC)cc3[se+]c2c1 [Compound 6, 3-N,N-dibutylamino-7-N,N-dipropylamino-phenoselenazin-5-ylium iodide] | 2.66 (2.26) log CFU/mL | 6.12 (0.82) log CFU/mL | – | – | 75% | 15% | 6.54 (0.00) log CFU/mL | 1.1 | > 2 | – | – | – | – | – | – | – | –
7 | CN(C)c1ccc2nc3ccc(N(C)C)cc3[se+]c2c1.[I-] [Compound A, 3,7-N,N-dimethylamino-phenoselenazin-5-ylium iodide, reference compound] | 1.74 (0.41) log CFU/mL | 0.19 (0.06) log CFU/mL | – | – | 0% | 0% | 3.33 (0.01) log CFU/mL | – | – | – | – | – | – | – | – | 0 | 0
